In patent US12162879B2, “Pyridopyrimidine derivative, preparation method therefor and medical use thereof” (Jiangsu Hengrui Medicine Co., Ltd., priority 2018, dated 2024):

Assays:
Type in all cases: cell-based
human TLR8 = human TLR8 (Homo sapiens (Human), UniProt Q9NR97); assay: Agonist activity on human TLR8 in HEK-Blue hTLR8 stably transfected cells; settings: 16 hours, OD 620 nm
Method: The agonist effect of the compounds of the present invention on hTLR8 expressed by the HEK-Blue™ hTLR8 stably transfected cells was determined by the following experimental method.
(§1) • 1. DMEM(Gibco, 10564-029); • 2. Fetal bovine serum (GIBCO, 10099); • 3. Trypan blue solution (Sigma, T8154-100 ML); • 4. Flexstation 3 multi-function microplate reader (Molecular Devices); • 5. HEK-Blue™ hTLR8 cell line (InvivoGen, hkb-hTLR8), or HEK-Blue™ hTLR7 cell line (InvivoGen, hkb-hTLR7); • 6. HEK-Blue detection reagent (InvivoGen, hb-det3); and • 7. Phosphate buffer solution (PBS) pH 7.4 (Shanghai Basalmedia Technologies Co., Ltd., B320). II. Experimental Procedures a. Determination of Agonist Activity on Human TLR8
(§2) A bag of HEK-Blue detection dry powder was dissolved in 50 ml of water free of endotoxin, and the solution was then placed in an incubator at 37° C. for 10 minutes followed by sterile filtration to prepare a HEK-Blue detection medium. The compound was firstly formulated into a 20 mM stock solution, then diluted with pure DMSO to a maximum concentration of 6×10^6 nM, and a total of 10 points were obtained by a 3-fold gradient dilution. The above formulated compound was firstly diluted 20-fold with the medium, then 20 μl of the diluted compound was added to each well.
(§3) The supernate was removed from the HEK-Blue™ hTLR8 cells, to which 2-5 ml of pre-warmed PBS was then added. The cells were placed in an incubator for 1-2 minutes, gently pipetted, and counted by trypan blue staining. The cells were re-suspended in the HEK-Blue detection medium to adjust the concentration to 2.2×10^5 cells/ml. 180 μl of cells was added to the above 96-well plate comprising 20 μl of the compound, and incubated at 37° C. for 16 hours.
(§4) The corresponding OD values were obtained by a microplate reader at a wavelength of 620 nm, and the EC50 values of the compounds were calculated by Graphpad Prism.

[1] = system: peripheral blood mononuclear cells (PBMC); assay: Stimulation of IL12 secretion from PBMC (ELISA); settings: minimum effective concentration, human PBMC, 24 hours
Method: (§5) The stimulating effect of the compounds of the present invention on the ability of secretion of IL12 and IFN γ from PBMC was determined by the following experimental method.
(§6) • 1. RMPI 1640 (Invitrogen, 11875); • 2. FBS (Gibco, 10099-141); • 3. Ficoll-Paque PREMIUM (GE, 17-5442-02); • 4. Trypan blue solution (Sigma, T8154-100 ML); • 5. SepMate™-50 (Stemcell, 15460); • 6. Bright-LineIM blood cell counter (Sigma, Z359629-1EA); • 7. 96-well cell culture plate (Corning, 3599); • 8. 96-well v-bottom plate (Corning, 3894); • 9. Human IL-12 ELISA kit (Neobioscience Technology Co., EHC152.96); • 10. Human IFN γ kit (cisbio, 62HIFNGPEG); and • 11. PHERAStar multi-function microplate reader (BMG, PHERAStar). II. Experimental Procedures
(§7) The compound was diluted with pure DMSO to a maximum concentration of 5 mM, and a total of 9 points were obtained by a 4-fold gradient dilution. 4 μl of the compound solution was then added to 196 μl of RMPI 1640 medium containing 10% FBS and mixed well. 50 μl of the mixture was taken and added to a 96-well cell culture plate.
(§8) All reagents were equilibrated to room temperature. 60 ml of blood from a healthy human and the same volume of PBS (containing 2% FBS) were added to a 250 ml culture flask, gently pipetted, mixed well and diluted. 15 ml of lymphocyte separation solution Ficoll-Paque PREMIUM was added to a 50 ml PBMC centrifuge tube SepMate™-50, followed by the addition of 30 ml of the above diluted blood. The mixture was centrifuged at 1200 g for 10 minutes at room temperature. The supernatant was taken and then centrifuged at 300 g for 8 minutes. The cells were re-suspended in the RMPI 1640 medium containing 10% FBS and counted, and the number of PBMCs was adjusted to 3.33×10^6 cells/ml. 150 μl of the cell solution was added to the plate containing the compounds, and incubated in an incubator at 37° C., 5.0% CO2 for 24 hours. The cell culture plate was placed in a centrifuge, and centrifuged at 1200 rpm for 10 minutes at room temperature. 150 μl of the supernatant was taken from each well.
The reagents in the Human IL-12 ELISA kit were equilibrated to room temperature. According to the kit's instruction, the highest concentration of the standard is 2000 pg/ml, and a total of 8 points were obtained by a 2-fold gradient dilution. The sample to be tested was diluted 20 folds. The solution was then added to a pre-coated plate at 100 μl/well. The plate was incubated at 37° C. for 90 minutes and rinsed. The […] was added at 100 μl/well, and the plate was incubated at 37° C. for 60 minutes and rinsed. HRP binding enzyme was added at 100 μl/well, and the plate was incubated at 37° C. for 30 minutes and rinsed. TMB was added, and the plate was incubated at room temperature for 5 minutes. Finally, the stop solution was added to stop the reaction, and the absorbance at 450 nm was read by the microplate reader.
(§9) The concentration of the compound that can stimulate PBMC to produce […] that is 3 times higher than the average value of the group without the compound (SD of the group without the compound) was defined as the minimum effective concentration (MEC) value of the compound.

[2] = system: peripheral blood mononuclear cells (PBMC); assay: Stimulation of IFNγ secretion from PBMC; settings: minimum effective concentration, human PBMC, 24 hours
Method: as §5, §6, §7, §8
The reagents in the Human IFN γ test kit were equilibrated to room temperature. The standard and detection antibody were prepared according to the kit's instruction under dark conditions. 16 μl of the supernatant obtained by centrifugation was added to each well, and 4 μl of freshly prepared mixed detection antibody was added to each well. The solution was mixed well by shaking, and incubated overnight in the dark at room temperature. The plate was read by the PHERAStar multi-function microplate reader.
as §9

human TLR7 = human TLR7 (Homo sapiens (Human), UniProt Q9NYK1); assay: Agonist activity on human TLR7 in HEK-Blue hTLR7 cells; settings: 16 hours, OD 620 nm
Method: as §1, §2
as §3, with “hTLR7” for “hTLR8”
as §4

Sequence of human TLR8 (Q9NR97 27-1041): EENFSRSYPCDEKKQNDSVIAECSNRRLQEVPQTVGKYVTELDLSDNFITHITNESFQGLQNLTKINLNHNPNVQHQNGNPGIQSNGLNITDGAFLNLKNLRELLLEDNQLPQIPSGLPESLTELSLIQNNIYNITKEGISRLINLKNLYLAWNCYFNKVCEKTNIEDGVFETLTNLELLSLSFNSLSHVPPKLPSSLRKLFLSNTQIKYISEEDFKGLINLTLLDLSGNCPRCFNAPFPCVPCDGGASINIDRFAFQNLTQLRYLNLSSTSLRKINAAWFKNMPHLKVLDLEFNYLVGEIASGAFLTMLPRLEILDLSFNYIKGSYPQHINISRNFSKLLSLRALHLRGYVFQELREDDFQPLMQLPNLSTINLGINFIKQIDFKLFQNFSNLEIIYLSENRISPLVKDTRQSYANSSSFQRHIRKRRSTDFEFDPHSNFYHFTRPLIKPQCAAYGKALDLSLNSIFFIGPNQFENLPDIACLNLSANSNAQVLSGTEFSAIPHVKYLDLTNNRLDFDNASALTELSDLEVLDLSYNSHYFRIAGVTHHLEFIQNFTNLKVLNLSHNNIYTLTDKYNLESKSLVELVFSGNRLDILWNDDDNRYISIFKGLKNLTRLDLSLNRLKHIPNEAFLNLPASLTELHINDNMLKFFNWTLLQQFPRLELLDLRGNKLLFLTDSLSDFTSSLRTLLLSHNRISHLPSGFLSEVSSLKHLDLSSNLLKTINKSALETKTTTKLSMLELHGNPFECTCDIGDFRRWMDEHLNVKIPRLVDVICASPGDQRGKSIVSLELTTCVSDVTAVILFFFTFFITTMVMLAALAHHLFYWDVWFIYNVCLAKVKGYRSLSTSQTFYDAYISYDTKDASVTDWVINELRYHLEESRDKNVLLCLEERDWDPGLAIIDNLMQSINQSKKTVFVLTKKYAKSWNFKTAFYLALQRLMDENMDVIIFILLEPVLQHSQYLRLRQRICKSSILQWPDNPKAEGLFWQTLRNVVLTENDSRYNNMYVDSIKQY
Sequence of human TLR7 (Q9NYK1 27-1049): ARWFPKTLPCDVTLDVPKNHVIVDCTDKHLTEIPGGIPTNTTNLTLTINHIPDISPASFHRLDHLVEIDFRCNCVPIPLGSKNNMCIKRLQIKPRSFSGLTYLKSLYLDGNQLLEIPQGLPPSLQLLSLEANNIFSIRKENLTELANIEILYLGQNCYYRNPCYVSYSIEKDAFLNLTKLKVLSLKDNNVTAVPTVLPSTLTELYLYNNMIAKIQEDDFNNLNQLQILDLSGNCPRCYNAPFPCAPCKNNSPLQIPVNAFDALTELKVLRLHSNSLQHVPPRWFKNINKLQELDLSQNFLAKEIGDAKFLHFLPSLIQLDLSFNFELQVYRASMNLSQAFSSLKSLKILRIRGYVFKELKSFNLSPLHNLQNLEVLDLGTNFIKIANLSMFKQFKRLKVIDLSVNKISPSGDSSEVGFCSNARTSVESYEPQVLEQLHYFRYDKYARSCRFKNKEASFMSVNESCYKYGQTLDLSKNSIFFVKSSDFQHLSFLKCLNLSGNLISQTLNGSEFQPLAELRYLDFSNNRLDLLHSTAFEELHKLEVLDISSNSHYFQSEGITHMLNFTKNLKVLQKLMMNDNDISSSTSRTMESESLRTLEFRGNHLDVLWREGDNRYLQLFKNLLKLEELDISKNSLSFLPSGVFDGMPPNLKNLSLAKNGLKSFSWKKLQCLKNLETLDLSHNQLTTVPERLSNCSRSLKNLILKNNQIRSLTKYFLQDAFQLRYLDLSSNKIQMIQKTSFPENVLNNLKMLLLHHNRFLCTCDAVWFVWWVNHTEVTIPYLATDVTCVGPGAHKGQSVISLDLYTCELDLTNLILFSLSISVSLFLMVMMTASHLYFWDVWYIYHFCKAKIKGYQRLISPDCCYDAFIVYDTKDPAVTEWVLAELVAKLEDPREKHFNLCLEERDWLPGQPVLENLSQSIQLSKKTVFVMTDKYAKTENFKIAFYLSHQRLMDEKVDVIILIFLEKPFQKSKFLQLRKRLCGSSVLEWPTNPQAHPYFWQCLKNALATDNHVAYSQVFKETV

EC50 (human TLR8)	Emax (human TLR8)	EC50 (human TLR7)	Emax (human TLR7)	SMILES	IL12 MEC [1]	IFNγ MEC [2]
130 nM	97%			CCCCC(C)(CO)Nc1nc(N)nc2cc(-c3ccc(CN4CCCC4)nc3)cnc12 (centres unmarked) [Example 1, 2-((2-Amino-7-(6-(pyrrolidin-1-ylmethyl)pyridin-3-yl)pyrido[3,2-d]pyrimidin-4-yl)amino)-2-methylhexan-1-ol]		
100 nM	104%			CCCCC(C)(CO)Nc1nc(N)nc2cc(-c3ccc(C4CCN(C)CC4)nc3)cnc12 (centres unmarked) [Example 3, 2-((2-Amino-7-(6-(1-methylpiperidin-4-yl)pyridin-3-yl)pyrido[3,2-d]pyrimidin-4-yl)amino)-2-methylhexan-1-ol]	15 nM	27 nM
80 nM	116%			CCCC[C@](C)(CO)Nc1nc(N)nc2cc(-c3cnc(CN4CCN(C)CC4)nc3)cnc12 [Example 7, (R)-2-((2-Amino-7-(2-((4-methylpiperazin-1-yl)methyl)pyrimidin-5-yl)pyrido[3,2-d]pyrimidin-4-yl)amino)-2-methylhexan-1-ol]		
150 nM	103%	> 30000 nM	5%	CCCCC(C)(CO)Nc1nc(N)nc2cc(-c3ccc(CN4CCNCC4)nc3)cnc12 (centres unmarked) [Example 9, 2-((2-Amino-7-(6-(piperazin-1-ylmethyl)pyridin-3-yl)pyrido[3,2-d]pyrimidin-4-yl)amino)-2-methylhexan-1-ol]	24 nM	94 nM
